Measurements reported in article PMC10648349, “Aromatic Diboronic Acids as Effective KPC/AmpC Inhibitors” (Molecules, 2023).
In brackets after ≈: the same amount, converted by molar mass.

What was measured:
E. faecalis ATCC 29212 = assay: direct antimicrobial activity (disc-diffusion, MIC, MBC); assay type: cell-based; details: Enterococcus faecalis, ATCC29212
Outline: (§1)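 Reference drugs were nitrofurantoin for Gram-negative rods, linezolid for Gram-positive bacteria and fluconazole for yeasts. Test agents were dissolved in DMSO and assessed by disc diffusion (0.4 mg/disc), MIC, and MBC or MFC per EUCAST/CLSI.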

[1] = system: S. aureus ATCC 43300 MRSA; assay: as above; assay type: cell-based; details: Staphylococcus aureus
Outline: as §1

S. aureus ATCC 6538P = assay: as above; assay type: cell-based; details: Staphylococcus aureus, ATCC6538P
Outline: as §1

B. subtilis ATCC 6633 = assay: direct antimicrobial activity (disc-diffusion); assay type: cell-based; details: Bacillus subtilis, ATCC6633; 0.4 mg per disc, 9 mm disc (linezolid 0.03 mg, 6 mm disc); - no zone; read-out: Diameter of inhibition zone
Outline: as §1

[2] = system: C. parapsilosis ATCC 22019; assay: antifungal activity (disc-diffusion, MIC, MFC); assay type: cell-based, Candida parapsilosis; details: Lodderomyces parapsilosis, ATCC22019; fluconazole by Etest
Outline: as §1

[3] = system: C. guilliermondii IBA 155; assay: antifungal activity (disc-diffusion, MIC, MFC); assay type: cell-based, Candida guilliermondii; details: Meyerozyma guilliermondii, IBA155; fluconazole by Etest
Outline: as §1

C. krusei ATCC 6258 = assay: antifungal activity (disc-diffusion, MIC, MFC); assay type: cell-based, Candida krusei; details: Pichia kudriavzevii, ATCC6258; fluconazole by Etest
Outline: as §1

E. coli 76 KPC-2(+) = assay: MIC of tested agent alone, microdilution; assay type: cell-based; details: Escherichia coli; read-out: MIC of agent alone
Outline: (§2)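 Two-fold checkerboard dilutions pair β-lactams (1–64 mg/L) with tested agents (4–16 mg/L); agent MICs alone come from parallel microdilution.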

E. coli 77 CMY-2(+) = assay: MIC of tested agent alone, microdilution; assay type: cell-based; details: Escherichia coli; read-out: MIC of agent alone
Outline: as §2

[4] = system: K. pneumoniae 81 KPC-3(+); assay: MIC of tested agent alone, microdilution; assay type: cell-based; details: Klebsiella pneumoniae; read-out: MIC of agent alone
Outline: as §2

[5] = system: K. pneumoniae 83 KPC-3(+), CTX-M-3(+); assay: MIC of tested agent alone, microdilution; assay type: cell-based; details: Klebsiella pneumoniae; read-out: MIC of agent alone
Outline: as §2

[6] = system: K. pneumoniae ATCC BAA-1705 KPC-2(+); assay: MIC of tested agent alone, microdilution; assay type: cell-based; details: Klebsiella pneumoniae, ATCCBAA1705; read-out: MIC of agent alone
Outline: as §2

[7] = system: P. aeruginosa MUW 700 AmpC(+); assay: MIC of tested agent alone, microdilution; assay type: cell-based; details: Pseudomonas aeruginosa; read-out: MIC of agent alone
Outline: as §2

[8] = system: P. aeruginosa MUW 700 cAmpC-positive; assay: combination disc test CDT-AmpC; assay type: cell-based; details: Pseudomonas aeruginosa; agent 0.3 mg per disc; read-out: Diameter of inhibition zone, CAZ-30 disc with agent
[9] = system: E. coli 77 CMY-2-positive; assay: combination disc test CDT-AmpC; assay type: cell-based; details: Escherichia coli; agent 0.3 mg per disc; read-out: Diameter of inhibition zone, CAZ-30 disc with agent
[10] = system: K. pneumoniae ATCC 700603 ESBL-positive; assay: combination disc test CDT-ESBL; assay type: cell-based; details: Klebsiella pneumoniae, ATCC700603; agent 0.3 mg per disc; read-out: Diameter of inhibition zone, CAZ-30 disc with agent
[11] = system: P. aeruginosa MUW 700 cAmpC-positive; assay: checkerboard microdilution, antibiotic plus tested agent; assay type: cell-based, Pseudomonas aeruginosa
Outline: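 Chequerboard layout: tested agent in three two-fold steps (4–16 mg/L) crossed with seven β-lactam dilutions (1–64 mg/L), meropenem for KPC strains and ceftazidime for the cAmpC strain. FICI from first non-growth wells, off-scale MICs raised one doubling; ≤0.5 counts as synergy, >4 antagonism.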

[12] = MTT-based viability assay; assay type: cell-based; details: human, MRC-5 human fibroblasts, 72 h, read-out: Viability of MRC-5 cells (% of viable cells ± SD)
Outline: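 Percent viable cells relative to control, measured in triplicate by MTT read-out at 570 nm. Cells: MRC-5 human fibroblasts cultured at 37 °C, 5% CO2 in MEME plus 10% FBS.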

MIC (E. faecalis ATCC 29212) [mg/L]	MIC [1] [mg/L]	MIC (S. aureus ATCC 6538P) [mg/L]	MIC [2] [mg/L]	MIC [3] [mg/L]	MIC (C. krusei ATCC 6258) [mg/L]	MIC (E. coli 76 KPC-2(+)) [mg/L]	MIC (E. coli 77 CMY-2(+)) [mg/L]	MIC [4] [mg/L]	MIC [5] [mg/L]	MIC [6] [mg/L]	MIC [7] [mg/L]	Structure (SMILES)	zone of inhibition at 0.4 mg/disc (B. subtilis ATCC 6633) [mm]	zone of inhibition at 300 µg/disc [8] [mm]	zone of inhibition at 300 µg/disc [9] [mm]	zone of inhibition at 300 µg/disc [10] [mm]	Average FICI with ceftazidime [11]	Interpretation of the average FICI with ceftazidime [11]	Interpretation of the lowest FICI with ceftazidime [11]	The lowest FICI with ceftazidime [11]	further results
200 (≈ 954 µM)	200 (≈ 954 µM)	25 (≈ 119 µM)	> 400	> 400	> 400	> 400	> 400	> 400	> 400	> 400	> 400	OB(O)c1ccc(B(O)O)c(B(O)O)c1 [4b, benzene-1,2,4-triboronic]	18	21	21	14	0.30	S (FICI ≤ 0.5, synergy)	S (FICI ≤ 0.5, synergy)	0.15	zone of inhibition at 0.4 mg/disc (S. aureus ATCC 6538P; 0.4 mg per disc, 9 mm disc (linezolid 0.03 mg, 6 mm disc), - no zone, read-out: Diameter of inhibition zone): 20 mm; viability at 72 h, 12.5 mg/L [12]: 114 ± 1.8%; viability at 72 h, 25 mg/L [12]: 106.4 ± 0.1%; viability at 72 h, 50 mg/L [12]: 97.3 ± 13.6%
100 (≈ 582 µM)	400 (≈ 2330 µM)	100 (≈ 582 µM)	> 400	> 400	> 400	> 400	> 400	> 400	> 400	> 400	> 400	OB(O)c1ccsc1B(O)O [5a, thiophene-2,3-diboronic acid]	15	22	20	16	0.30	S (FICI ≤ 0.5, synergy)	S (FICI ≤ 0.5, synergy)	0.15	viability at 72 h, 12.5 mg/L [12]: 88.6 ± 9.2%; viability at 72 h, 25 mg/L [12]: 87.1 ± 1.6%; viability at 72 h, 50 mg/L [12]: 79.2 ± 5.1%

Structure (SMILES)	MIC (E. faecalis ATCC 29212) [mg/L]	MIC [1] [mg/L]	MIC (S. aureus ATCC 6538P) [mg/L]	MIC [2] [mg/L]	MIC [3] [mg/L]	MIC (C. krusei ATCC 6258) [mg/L]	MIC (E. coli 76 KPC-2(+)) [mg/L]	MIC (E. coli 77 CMY-2(+)) [mg/L]	MIC [4] [mg/L]	MIC [5] [mg/L]	MIC [6] [mg/L]	MIC [7] [mg/L]	zone of inhibition at 0.4 mg/disc (B. subtilis ATCC 6633) [mm]	zone of inhibition at 300 µg/disc [8] [mm]	zone of inhibition at 300 µg/disc [9] [mm]	zone of inhibition at 300 µg/disc [10] [mm]	Average FICI with ceftazidime [11]	Interpretation of the average FICI with ceftazidime [11]	Interpretation of the lowest FICI with ceftazidime [11]	The lowest FICI with ceftazidime [11]	further results
OB(O)c1ccccc1B(O)O [3a, phenylene-1,2-diboronic acid]	400 (≈ 2410 µM)	400 (≈ 2410 µM)	200 (≈ 1210 µM)	25 (≈ 151 µM)	> 400	400 (≈ 2410 µM)	400	400	400	400	400	400	24	22	23	18	0.61	I (0.5 < FICI ≤ 4, indifference)	S (FICI ≤ 0.5, synergy)	0.29	viability at 72 h, 16 mg/L ([12]; 16 mg/L): 110 ± 9.3%; viability at 72 h, 32 mg/L ([12]; 32 mg/L): 106 ± 10.6%; viability at 72 h, 64 mg/L ([12]; 64 mg/L): 76.2 ± 4.2%
